In publication PMC10891031 (2024) one finds fragment found data, which are given here for 1 substance.

A short description of the data set: plasma from a Sprague Dawley rat. The following applies: 37 °C, up to 15 min.

On to H-ACGLSGLGVA-NH2, for which the fragment found entry is “[^18F]FNA, 5 min”.
